The values below are quoted from earlier work in publication PMC11249953, “c-KIT inhibitors reduce pathology and improve behavior in the Tg(SwDI) model of Alzheimer’s disease” (Life Science Alliance, 2024).

Like-named read-outs stand apart in the source and are kept apart here.

One data set has as its system APPswe/PSEN1dE9 mice. The arrangement: method as in Li et al, 2020. To be noted: chronic oral treatment, ref Li et al, 2020; cited from earlier work.
For a further data set, the system named is c-KIT. The arrangement: method as in Dubreuil et al, 2009. The settings on record: ref Dubreuil et al, 2009; cited from earlier work.
The conditions of data set [1]: ref Li et al, 2020, cited from earlier work.

As for `Cc1ccc(NC(=O)c2ccc(CN3CCN(C)CC3)cc2)cc1Nc1nc(-c2cccnc2)cs1` [Masitinib], in the data set with APPswe/PSEN1dE9 mice, the amyloid-β and neuroinflammation entry was “not reducing amyloid-β or attenuating neuroinflammation”; the spatial learning performance result is listed as “reverse spatial learning performance”. The IC50 in the data set with c-KIT was […]. Also, the brain penetrance result in data set [1] is “poor brain penetrance”. For the same compound, in data set [1] (listed as masitinib), the brain penetrance entry is reported as “poor brain penetrant”.
